Read-outs that look alike come from different tables or passages of the source. *1 amine or outer side, *2 acyl side, *3 side chain or, on linkers, in order; H or OH if unused. Where a SMILES comes first, the peptide text is derived from it. Bridges are numbered along the chain shown (N, C = ends). [ ]: non-standard residue; d: D form. The star is where a group is joined. Phenylsulfonyl(4-anisamido) = COc1ccc(C(=O)Nc2ccc(S(=O)(=O)*)cc2)cc1; Benzoyl(4-(4-EtNHCO-PhO)) = CCNC(=O)c1ccc(Oc2ccc(C(=O)*)cc2)cc1; Benzoyl(4-O-C6H4-4-CONHMe) = CNC(=O)c1ccc(Oc2ccc(C(=O)*)cc2)cc1; Benzenesulfonyl(4-OPh) = O=S(=O)(c1ccc(Oc2ccccc2)cc1)*; X4 = NC(=O)CCCCNC(=O)c1ccc(Oc2ccc(C(=O)*)cc2)cc1; X16 = O=C(O)CCNC(=O)c1ccc(Oc2ccc(C(=O)*)cc2)cc1; X3 = O=C(Nc1ccc(S(=O)(=O)*)cc1)c1ccc(OC2CC2)cc1; X8 = CCCOc1ccc(C(=O)Nc2ccc(S(=O)(=O)*)cc2)cc1; X2 = CCOc1ccc(C(=O)Nc2ccc(S(=O)(=O)*)cc2)cc1; X6 = NCCCCNC(=O)c1ccc(Oc2ccc(C(=O)*)cc2)cc1; Benzoyl(4-OPh) = O=C(c1ccc(Oc2ccccc2)cc1)*; d(γGlu) = O=C(O)[C@@H](CCC(=O)[*:2])N[*:1]; NMeY = CN[C@@H](Cc1ccc(O)cc1)C(=O)O; NMeGABA = CN(CCCC(=O)[*:2])[*:1]; NMeI = CC[C@H](C)[C@H](NC)C(=O)O; NMeE = CN[C@@H](CCC(=O)O)C(=O)O; NMeN = CN[C@@H](CC(N)=O)C(=O)O; NMeL = CN[C@@H](CC(C)C)C(=O)O; NMeK = CN[C@@H](CCCCN)C(=O)O; NMeM = CN[C@@H](CCSC)C(=O)O; β3hP = O=C(O)C[C@@H]1CCCN1; Orn = NCCC[C@H](N)C(=O)O; Dab = NCC[C@H](N)C(=O)O; Ahx = NCCCCCC(=O)O; Ava = NCCCCC(=O)O; GABA = NCCCC(=O)O
Molecular target: T1, MMP2 (Homo sapiens, UniProt P08253)
T1 sequence (P08253 110-660): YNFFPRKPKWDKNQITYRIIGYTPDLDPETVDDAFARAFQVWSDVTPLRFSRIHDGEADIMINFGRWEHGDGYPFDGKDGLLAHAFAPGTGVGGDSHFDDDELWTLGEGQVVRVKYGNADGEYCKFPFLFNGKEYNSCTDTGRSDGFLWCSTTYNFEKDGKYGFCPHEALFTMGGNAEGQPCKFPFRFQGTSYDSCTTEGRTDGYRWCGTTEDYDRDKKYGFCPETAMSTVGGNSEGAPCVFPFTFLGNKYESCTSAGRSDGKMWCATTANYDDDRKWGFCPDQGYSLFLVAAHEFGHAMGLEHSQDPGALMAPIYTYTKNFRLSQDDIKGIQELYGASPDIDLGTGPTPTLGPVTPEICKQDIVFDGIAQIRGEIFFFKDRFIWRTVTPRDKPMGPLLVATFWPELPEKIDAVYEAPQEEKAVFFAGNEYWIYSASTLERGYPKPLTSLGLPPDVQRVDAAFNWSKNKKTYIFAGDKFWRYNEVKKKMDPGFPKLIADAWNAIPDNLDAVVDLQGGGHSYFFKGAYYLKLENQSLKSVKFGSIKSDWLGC
Assay: Inhibitory effects on human MMP2 (Method 1), enzyme assay with MOCAc-Pro-Leu-Gly-Leu-A2pr(Dnp)-Ala-Arg-NH2 substrate, 96-well
Assay type: biochemical
Conditions: read-out: Human MMP2, IC50
Method: In a reaction solution [50 mmol/L Tris-HCl (pH 7.5), 150 mmol/L NaCl, 10 mmol/L CaCl2, 0.05% Brij L23], 100 μg/mL human recombinant MMP2 enzyme and 1 mmol/L 4-Aminophenylmercuric acetate were mixed together, and reacted at 37° C. for 60 minutes. The human MMP2 activated through the reaction was poured into a 96-well microplate to reach a final concentration of 0.7 or 7 ng/mL.

[1] = Test Example No. 1-1 (Method 1, 96-well microplate)

Compound | IC50 [1] [pM] | IC50 (Test Example No. 1-1 (Method 1, 96-well)) [pM]
CC[C@H](C)[C@@H](C(=O)N1CCC[C@H]1CC(N)=O)N(C)C(=O)[C@H](CC(C)C)NC(=O)[C@H](CCN)NC(=O)[C@H](CC(=O)O)NC(=O)[C@H](CCC(=O)O)NC(=O)CCCCNC(=O)c1ccc(Oc2ccc(C(=O)NCCCCC(N)=O)cc2)cc1 [Compound 201] ({X4-Ava}-ED[Dab]L[NMeI][β3hP]-NH2; N-terminus assumed) | 1400 | 
CC(C)C[C@H](NC(=O)[C@H](CCN)NC(=O)CC[C@@H](NS(=O)(=O)c1ccc(NC(=O)c2ccc(OC3CC3)cc2)cc1)C(=O)O)C(=O)N(C)[C@@H](CCC(=O)O)C(=O)N1CCC[C@H]1CC(N)=O [Compound 703] ({X3-d(γGlu)}-[Dab]L[NMeE][β3hP]-NH2; N-terminus assumed) | 330 | 
CCOc1ccc(C(=O)Nc2ccc(S(=O)(=O)N[C@H](CCC(=O)N[C@@H](CCN)C(=O)N[C@@H](CC(C)C)C(=O)N(C)[C@@H](CCC(=O)O)C(=O)N3CCC[C@H]3CC(N)=O)C(=O)O)cc2)cc1 [Compound 702] ({X2-d(γGlu)}-[Dab]L[NMeE][β3hP]-NH2; N-terminus assumed) | 250 | 
CC(C)C[C@H](NC(=O)[C@H](CCN)NC(=O)[C@H](CC(=O)O)NC(=O)[C@H](CCCN)NC(=O)CCCNC(=O)c1ccc(Oc2ccccc2)cc1)C(=O)N(C)[C@@H](CCC(=O)O)C(=O)N1CCC[C@H]1CC(N)=O [Compound 145] ({Benzoyl(4-OPh)-GABA}-[Orn]D[Dab]L[NMeE][β3hP]-NH2; N-terminus assumed) | 720 | 
CCCOc1ccc(C(=O)Nc2ccc(S(=O)(=O)N[C@H](CCC(=O)N[C@@H](CCN)C(=O)N[C@@H](CC(C)C)C(=O)N(C)[C@H](C(=O)N3CCC[C@H]3CC(N)=O)[C@@H](C)CC)C(=O)O)cc2)cc1 [Compound 696] ({X8-d(γGlu)}-[Dab]L[NMeI][β3hP]-NH2; N-terminus assumed) | 220 | 
CC[C@H](C)[C@@H](C(=O)N1CCC[C@H]1CC(=O)O)N(C)C(=O)[C@@H]1CCCCNC(=O)CNC(=O)CC[C@H](NC(=O)CCCNS(=O)(=O)c2ccc(Oc3ccccc3)cc2)C(=O)N[C@@H](CC(=O)O)C(=O)N[C@@H](C)C(=O)N1 [Compound 891] ({Benzenesulfonyl(4-OPh)-GABA}-EDAK[NMeI][β3hP]-OH; linker 1-4 via G) |  | 1600
CC(C)C[C@H](NC(=O)[C@H](CCN)NC(=O)[C@H](CC(=O)O)NC(=O)[C@H](CC(N)=O)NC(=O)CCCCNC(=O)c1ccc(Oc2ccc(C(=O)NCCCCN)cc2)cc1)C(=O)N(C)[C@@H](CCC(=O)O)C(=O)N1CCC[C@H]1CC(N)=O [Compound 181] ({X6-Ava}-ND[Dab]L[NMeE][β3hP]-NH2; N-terminus assumed) | 3100 | 
CC[C@H](C)[C@@H](C(=O)N1CCC[C@H]1C(N)=O)N(C)C(=O)[C@H](CC(C)C)NC(=O)[C@H](C)NC(=O)[C@H](CC(=O)O)NC(=O)[C@H](CCCCN)N(C)C(=O)CCCNC(=O)c1ccc(Oc2ccccc2)cc1 [Compound 127] ({Benzoyl(4-OPh)-GABA}-[NMeK]DAL[NMeI]P-NH2; N-terminus assumed) | 240 | 
CC(C)C[C@H](NC(=O)[C@H](CCN)NC(=O)[C@H](CC(=O)O)NC(=O)[C@H](CC(N)=O)NC(=O)CCCCNC(=O)c1ccc(Oc2ccc(C(=O)NCCC(=O)O)cc2)cc1)C(=O)N(C)[C@@H](CCC(=O)O)C(=O)N1CCC[C@H]1CC(N)=O [Compound 183] ({X16-Ava}-ND[Dab]L[NMeE][β3hP]-NH2; N-terminus assumed) | 7000 | 
CC[C@H](C)[C@@H](C(=O)N1CCC[C@H]1C(N)=O)N(C)C(=O)[C@H](CC(C)C)NC(=O)[C@H](C)NC(=O)[C@H](CC(=O)O)NC(=O)[C@H](CCSC)N(C)C(=O)CCCNC(=O)c1ccc(Oc2ccccc2)cc1 [Compound 122] ({Benzoyl(4-OPh)-GABA}-[NMeM]DAL[NMeI]P-NH2; N-terminus assumed) | 160 | 
CCNC(=O)c1ccc(Oc2ccc(C(=O)NCCCCCC(=O)N[C@@H](CCCCN)C(=O)N[C@@H](CC(=O)O)C(=O)N[C@@H](CCN)C(=O)N[C@@H](CC(C)C)C(=O)N(C)[C@@H](CCC(=O)O)C(=O)N3CCC[C@H]3CC(N)=O)cc2)cc1 [Compound 194] ({Benzoyl(4-(4-EtNHCO-PhO))-Ahx}-KD[Dab]L[NMeE][β3hP]-NH2; N-terminus assumed) | 3700 | 
CC[C@H](C)[C@@H](C(=O)N1CCC[C@H]1C(N)=O)N(C)C(=O)[C@H](CC(C)C)NC(=O)[C@H](C)NC(=O)[C@H](CC(=O)O)NC(=O)[C@H](Cc1ccc(O)cc1)N(C)C(=O)CCCNC(=O)c1ccc(Oc2ccccc2)cc1 [Compound 129] ({Benzoyl(4-OPh)-GABA}-[NMeY]DAL[NMeI]P-NH2) | 460 | 
CNC(=O)c1ccc(Oc2ccc(C(=O)NCCCCC(=O)N[C@@H](CCCCN)C(=O)N[C@@H](CC(=O)O)C(=O)N[C@@H](CCN)C(=O)N[C@@H](CC(C)C)C(=O)N(C)[C@@H](CCC(=O)O)C(=O)N3CCC[C@H]3CC(N)=O)cc2)cc1 [Compound 184] ({Benzoyl(4-O-C6H4-4-CONHMe)-Ava}-KD[Dab]L[NMeE][β3hP]-NH2; N-terminus assumed) | 610 | 
CC[C@H](C)[C@@H](C(=O)N1CCC[C@H]1CC(N)=O)N(C)C(=O)[C@H](CC(C)C)NC(=O)[C@H](CCN)NC(=O)[C@H](CC(=O)O)NC(=O)[C@H](NC(=O)CCCCNS(=O)(=O)c1ccc(Oc2ccccc2)cc1)[C@H](C)O [Compound 85] ({Benzenesulfonyl(4-OPh)-Ava}-[dT]D[Dab]L[NMeI][β3hP]-NH2; N-terminus assumed) | 490 | 
CC[C@H](C)[C@@H](C(=O)N1CCC[C@H]1C(N)=O)N(C)C(=O)[C@H](CC(C)C)NC(=O)[C@H](C)NC(=O)[C@H](CC(=O)O)NC(=O)[C@H](CC(N)=O)N(C)C(=O)CCCN(C)C(=O)c1ccc(Oc2ccccc2)cc1 [Compound 103] ({Benzoyl(4-OPh)}-[NMeGABA][NMeN]DAL[NMeI]P-NH2; N-terminus assumed) | 670 | 
CC[C@H](C)[C@@H](C(=O)N1CCC[C@H]1CC(N)=O)N(C)C(=O)[C@H](CC(C)C)NC(=O)[C@H](CCN)NC(=O)CC[C@@H](NS(=O)(=O)c1ccc(NC(=O)c2ccc(OC)cc2)cc1)C(=O)O [Compound 695] ({Phenylsulfonyl(4-anisamido)-d(γGlu)}-[Dab]L[NMeI][β3hP]-NH2; N-terminus assumed) | 530 | 
CC[C@H](C)[C@@H](C(=O)N1CCC[C@H]1C(N)=O)N(C)C(=O)[C@H](CC(C)C)NC(=O)[C@H](C)NC(=O)[C@H](CC(=O)O)NC(=O)[C@H](CC(C)C)N(C)C(=O)CCCNC(=O)c1ccc(Oc2ccccc2)cc1 [Compound 120] ({Benzoyl(4-OPh)-GABA}-[NMeL]DAL[NMeI]P-NH2; N-terminus assumed) | 210 | 
CC[C@H](C)[C@@H](C(=O)N1CCC[C@H]1CC(N)=O)N(C)C(=O)[C@H](CC(C)C)NC(=O)[C@H](CCN)NC(=O)[C@H](CC(=O)O)NC(=O)[C@H](CCCCN)NC(=O)CCCCNC(=O)c1ccc(Oc2ccc(C(=O)NC)cc2)cc1 [Compound 185] ({Benzoyl(4-O-C6H4-4-CONHMe)-Ava}-KD[Dab]L[NMeI][β3hP]-NH2; N-terminus assumed) | 1000 | 
CC[C@H](C)[C@@H](C(=O)N1CCC[C@H]1CC(N)=O)N(C)C(=O)[C@H](CC(C)C)NC(=O)[C@H](CCN)NC(=O)[C@H](CC(=O)O)NC(=O)[C@H](CCCCN)NC(=O)CCCCCNC(=O)c1ccc(Oc2ccc(C(=O)NC)cc2)cc1 [Compound 187] ({Benzoyl(4-O-C6H4-4-CONHMe)-Ahx}-KD[Dab]L[NMeI][β3hP]-NH2; N-terminus assumed) | 2800 | 
CC[C@H](C)[C@@H](C(=O)N1CCC[C@H]1CC(N)=O)N(C)C(=O)[C@H](CC(C)C)NC(=O)[C@H](CCN)NC(=O)CC[C@@H](NS(=O)(=O)c1ccc(NC(=O)c2ccc(OC3CC3)cc2)cc1)C(=O)O [Compound 700] ({X3-d(γGlu)}-[Dab]L[NMeI][β3hP]-NH2; N-terminus assumed) | 410 | 
CCNC(=O)c1ccc(Oc2ccc(C(=O)NCCCCCC(=O)N[C@@H](CCCNC(=N)N)C(=O)N[C@@H](CC(=O)O)C(=O)N[C@@H](CCN)C(=O)N[C@@H](CC(C)C)C(=O)N(C)[C@H](C(=O)N3CCC[C@H]3CC(N)=O)[C@@H](C)CC)cc2)cc1 [Compound 198] ({Benzoyl(4-(4-EtNHCO-PhO))-Ahx}-RD[Dab]L[NMeI][β3hP]-NH2; N-terminus assumed) | 5100 | 
CNC(=O)c1ccc(Oc2ccc(C(=O)NCCCCCC(=O)N[C@@H](CCCNC(=N)N)C(=O)N[C@@H](CC(=O)O)C(=O)N[C@@H](CCN)C(=O)N[C@@H](CC(C)C)C(=O)N(C)[C@@H](CCC(=O)O)C(=O)N3CCC[C@H]3CC(N)=O)cc2)cc1 [Compound 190] ({Benzoyl(4-O-C6H4-4-CONHMe)-Ahx}-RD[Dab]L[NMeE][β3hP]-NH2; N-terminus assumed) | 1800 | 
CC[C@H](C)[C@@H](C(=O)N1CCC[C@H]1CC(N)=O)N(C)C(=O)[C@H](CC(C)C)NC(=O)[C@H](CCN)NC(=O)[C@H](CC(=O)O)NC(=O)[C@H](CCCNC(=N)N)NC(=O)CCCCCNC(=O)c1ccc(Oc2ccc(C(=O)NC)cc2)cc1 [Compound 191] ({Benzoyl(4-O-C6H4-4-CONHMe)-Ahx}-RD[Dab]L[NMeI][β3hP]-NH2; N-terminus assumed) | 2700 | 

— patent US20240199692A1 (priority 2019, published 2024)
